1 compound from US8562804B2 (priority 2006, dated 2013) can be followed below.

The format of data set [1] is physicochemical.

Structures are written as SMILES. Several values for one entry are separate records, joined by “and”; a condition that tells them apart may be missing. Equal entries are not always repeated. Where two headings read alike, the source gives them in different places.

For the compound `O=[N+]([O-])c1ccccc1O` [2NP, 2-nitrophenol], the effective mobility in data set [1] (pH 6.4) is 12.2(±0.3)·10^−9 m^2/Vs and 13.4(±0.3)·10^−9 m^2/Vs; in data set [1] (pH 6.8) it was 15.8(±0.2)·10^−9 m^2/Vs and 16.3(±0.2)·10^−9 m^2/Vs. Further, the pKa in the data set “physchem” worked out at 6.7.

Broadly, the pKa is the negative logarithm of the acid dissociation constant. High values mean a group that holds its proton tightly, low ones a group that gives up its proton readily.
